The results in this text go back to patent publication US5238958A, “Substituted α-amino acids having selected acidic moieties for use as excitatory amino acid antagonists in pharmaceuticals” (Warner-Lambert Company, priority 1990, dated 1993).

For the experiment, the target named is NMDA receptor. In words: NMDA receptor binding assay using [3H]CPP as antagonist ligand. Particulars: in vitro, essentially as Murphy et al, J. Pharm. Exp. Ther. 240:778 (1987). An excerpt: The activity of the compounds of the formula I is shown in vitro in an NMDA receptor binding assay based on the use of [^3 H]CPP as antagonist ligand in a manner essentially as set out by B. E. Murphy, et al, in J. Pharm. Exp. Ther. 240:778 (1987).

Counter-ions that a name gives are not always drawn. A value given as a limit tells only on which side of the number the result lay.

By IC50 is commonly meant the concentration needed to halve the response being measured. A high value points to weaker potency in that assay. The compound `NC(C(=O)O)c1ccc(CC(=O)O)cc1` (racemic) [Example I1, 1,4-Benzenediacetic acid, α-amino-, (±)] gave an IC50 below 100 µM. The value for `NC(C(=O)O)c1ccc(CC(=O)O)c(O)c1` (racemic) [Example I3, 1,4-Benzenediaoetic acid, α-amino-2-hydroxy-,-monohydrochloride, (±)] was below 100 µM. The value for `NC(C(=O)O)c1ccc(O)c(CC(=O)O)c1` (stereo not drawn) [Example I2, α-Amino-4-hydroxy-1,3-benzenediacetic acid] was below 100 µM.
